# Assay results from PubChem BioAssay (NCI).
#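 Five compound concentrations were applied to cells in 96-well plates for 48 hours; endpoints were derived by simple linear interpolation of the resulting dose-response curve. Here, GI50 denotes the concentration required for 50% inhibition of growth. At the TGI there is no net growth.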
# Legend:
# Experiment in all cases: DTP human tumour cell line panel, 48 h
# [1] = system: 786-0 renal
# [2] = system: A498 renal
# [3] = system: ACHN renal
# [4] = system: BT-549 breast
# [5] = system: CAKI-1 renal
# [6] = system: LOX IMVI melanoma
# [7] = system: RPMI-8226 leukemia
# [8] = system: SF-268 CNS
# [9] = system: SNB-75 CNS
# [10] = system: UACC-257 melanoma
# [11] = system: NCI-H522 lung
SMILES,TGI [1] [µM],TGI [2] [µM],TGI [3] [µM],TGI [4] [µM],TGI [5] [µM],TGI [6] [µM],TGI [7] [µM],TGI [8] [µM],TGI [9] [µM],TGI [10] [µM],TGI [11] [µM],GI50 [2] [µM],GI50 [3] [µM],GI50 [5] [µM],GI50 [6] [µM],GI50 [11] [µM],GI50 [7] [µM],GI50 [8] [µM],GI50 [9] [µM],GI50 [10] [µM]
Clc1c(C(Cl)(Cl)Cl)nsc1N1CCCCC1,39.2,46.1,> 100,48.4,55.2,32.5,40.9,> 100,81.8,64.7,–,–,–,–,–,–,–,–,–,–
CC(C)OC(=O)[C@@H](O)[C@H](CO)C1=CC([Si](C)(C)c2ccccc2)=CON1,> 100,> 100,> 100,> 100,> 100,> 100,> 100,> 100,69.2,> 100,–,–,–,–,–,–,–,–,–,–
CC(Cc1ccccc1)NC1=NCCO1 (stereo not given),–,85.5,> 100,–,> 100,34.9,67.3,–,> 100,–,> 100,–,–,–,–,–,–,–,–,–
CCOc1ccc2nc(NC(NC(=O)c3cccnc3)(C(F)(F)F)C(F)(F)F)sc2c1,94.3,–,> 100,> 100,> 100,–,–,> 100,68.2,69.4,84.2,–,–,–,–,–,–,–,–,–
N#Cc1nc(CCC(c2nc(C#N)c(N)o2)N2C(=O)c3ccccc3C2=O)oc1N (stereo not given),> 100,> 100,> 100,–,> 100,> 100,> 100,> 100,> 100,> 100,> 100,–,–,–,–,–,–,–,–,–
C=C1C(=O)O[C@@H]2[C@H](O)[C@@H](C)[C@@H]3C=CC(=O)[C@@]3(C)[C@H](OC(=O)C=C(C)C)[C@H]12,–,4.65,–,–,1.74,2.25,0.975,3.59,7.86,4.74,0.4,–,–,–,–,–,–,–,–,–
Nc1ccc(Oc2ccc(C34CC5CC6C3CC3CC4C(C5)C6(c4ccc(Oc5ccc(N)c(O)c5)cc4)C3)cc2)cc1O,14.9,20.4,14.3,20.9,27.7,> 34.9,7.94,29.2,–,34.7,5.73,–,–,–,–,–,–,–,–,–
CCN(CC)C(=O)N1CN(c2ccccc2)C2(CCN(CCCSc3ccc(F)cc3)CC2)C1=O,25.4,–,15.8,31.4,> 100,10.7,41.6,36.1,50.3,12.8,30.5,–,–,–,–,–,–,–,–,–
O=c1c2ccccc2[nH]c2cc(O)cc(O)c12,–,–,> 100,–,–,> 100,–,> 100,> 100,> 100,86.3,–,–,–,–,–,–,–,–,–
Cc1cc2nc(N3C(=O)/C(=C/c4ccc(Cl)cc4)N=C3c3ccccc3)sc2cc1C,92.1,85.9,> 100,81.7,> 100,56.2,> 100,> 100,63.9,> 100,–,–,–,–,–,–,–,–,–,–
CCN(CC)CCCOc1cc2c(cc1OC)C(=O)N1CCC[C@H]1C=N2,> 100,92.4,> 100,76.1,44.3,31.3,53.8,> 100,–,> 100,54,–,–,–,–,–,–,–,–,–
C(=C\c1cc(-c2ccc3ccccc3n2)nc2ccc3ccccc3c12)/c1ccc2ccccc2n1,> 100,> 100,> 100,> 100,> 100,> 100,> 100,> 100,97.9,> 100,–,–,–,–,–,–,–,–,–,–
CCOC(=O)CSc1[nH]c(NC(=S)Nc2ccccc2)c(C(N)=O)c1C(N)=O,> 10,–,–,–,> 10,> 10,> 10,> 10,> 10,> 10,–,–,–,–,–,–,–,–,–,–
COc1ccc(-c2cc(-c3cc(F)c(Cl)cc3Cl)on2)cc1OC,> 100,–,> 100,> 100,> 100,> 100,> 100,> 100,> 100,> 100,> 100,–,–,–,–,–,–,–,–,–
O=C1C(NCCN2CCOCC2)=C(Cl)C(=O)c2ncccc21,1.6,3.98,2.31,2.57,–,0.928,0.377,3.37,2.35,–,–,–,–,–,–,–,–,–,–,–
O=C1CCCC2=C1CC1=C(CCCC1=O)N2c1ccccc1,> 100,> 100,> 100,> 100,> 100,> 100,> 100,> 100,> 100,–,–,–,–,–,–,–,–,–,–,–
Oc1ccc(O)c(CNc2ccccc2)c1,26.1,–,25.5,24.3,23.1,28.1,3.14,> 100,> 100,39.4,6.65,–,–,–,–,–,–,–,–,–
COC(=O)c1cc(C(=CCC[C@H]2CC[C@@]3(C)C(CCC4C3CC[C@@]3(C)C4CC[C@@H]3C(C)CCCC(C)C)C2)c2cc(Cl)c(OC(=O)c3ccccc3)c(C(=O)OC)c2)cc(Cl)c1OC(=O)c1ccccc1 (stereo not given in full),> 10,–,> 10,> 10,> 10,> 10,> 10,> 10,> 10,> 10,> 10,–,–,–,–,–,–,–,–,–
CCCCCCC(C)OC(=O)/C=C(\CC(=O)OC(C)CCCCCC)C(=O)OC(C)CCCCCC (stereo not given),> 100,> 100,> 100,–,> 100,> 100,> 100,> 100,> 100,> 100,> 100,–,–,–,–,–,–,–,–,–
CSc1nc2c(=O)n(-c3ccccc3)c(=S)n(-c3ccccc3)c2s1,> 100,–,> 100,–,–,> 100,> 100,> 100,91.7,> 100,> 100,–,–,–,–,–,–,–,–,–
C[C@]1(O)O[C@@H]2OCC[C@@H]2C2=C1C(=O)c1ccccc1C2=O,28.8,27.1,31.7,–,34.7,25.2,20.9,26.3,74,31,31.6,–,–,–,–,–,–,–,–,–

SMILES,TGI [1] [µM],TGI [2] [µM],TGI [3] [µM],TGI [4] [µM],TGI [5] [µM],TGI [6] [µM],TGI [7] [µM],TGI [8] [µM],TGI [9] [µM],TGI [10] [µM],TGI [11] [µM],GI50 [2] [µM],GI50 [3] [µM],GI50 [5] [µM],GI50 [6] [µM],GI50 [11] [µM],GI50 [7] [µM],GI50 [8] [µM],GI50 [9] [µM],GI50 [10] [µM]
COC(=O)[C@H](Cc1ccccc1)NP(=O)(O)OCC1C=CC(n2cc(C)c(=O)[nH]c2=O)O1 (stereo not given in full),> 100,–,62.6,> 100,> 100,> 100,> 100,> 100,> 100,> 100,> 100,–,–,–,–,–,–,–,–,–
COc1cc(C2c3cc4c(cc3[C@@H](Nc3cccc([N+](=O)[O-])c3)C3COC(=O)[C@H]23)OCO4)cc(OC)c1O (stereo not given in full),–,4.47,–,–,7.46,19.6,32.1,> 51.5,> 22.7,35.2,11.7,–,–,–,–,–,–,–,–,–
NC(=O)CC(N=C1C(=O)OC(C(O)CO)C1=NC(CC(N)=O)C(=O)O)C(=O)O (stereo not given),> 100,> 100,> 100,–,> 100,–,> 100,> 100,> 100,> 100,> 100,–,–,–,–,–,–,–,–,–
C#CC(O)/C=C/C(O)CCCC(O)CC#CC(O)C#CC(O)CCCC(O)/C=C/CCCC(=O)CCCCCCCCCCCCCCCC(O)C(O)C#CC(=O)O (stereo not given),> 50,–,> 50,–,> 50,20.8,> 50,> 50,> 50,> 50,17.5,–,–,–,–,–,–,–,–,–
CC(NC(=O)C(N)CC(=O)O)NC(=O)N(C)C(C)(C)C (stereo not given),> 100,–,> 100,> 100,> 100,> 100,> 100,> 100,> 100,> 100,> 100,–,–,–,–,–,–,–,–,–
Clc1ncc(Cl)c(Cl)n1,7.49,40.2,3.63,–,3.25,3.22,6.47,20.5,9.98,14.3,5.69,–,–,–,–,–,–,–,–,–
O=[N+]([O-])c1ccc2c(c1)c(S(=O)(=O)O)cc1nonc12,> 100,> 100,> 100,> 100,> 100,> 100,> 100,> 100,–,> 100,> 100,–,–,–,–,–,–,–,–,–
C=CCCCCCCCCCOC1C=CC(OC(C)=O)C(COC(C)=O)O1 (stereo not given),> 100,> 100,> 100,> 100,> 100,> 100,84.6,> 100,–,95.8,> 100,–,–,–,–,–,–,–,–,–
CC(=O)NC(Cc1ccc(OP(=O)(OCc2ccc([N+](=O)[O-])o2)N(C)CCCCCl)cc1)C(=O)NC(C)c1ccc(OCC2CCCCC2)c(C(N)=O)c1 (stereo not given),12.4,35.4,33.4,–,> 100,3.77,3.96,6.48,–,3.78,12,–,–,–,–,–,–,–,–,–
CCN(CC)CCCC(C)NC(=O)c1ccc2c(c1)C(=O)c1ccccc1C2=O (stereo not given),39.5,42.3,38.2,–,79.3,39.6,52.4,80.4,> 86.9,26.1,37.4,–,–,–,–,–,–,–,–,–
CCc1nc2ccc(C(F)(F)F)cc2[nH]c1=O,> 100,> 100,> 100,> 100,> 100,> 100,> 100,> 100,> 100,> 100,–,–,–,–,–,–,–,–,–,–
Oc1ccc(C#CCOc2ccccc2)cc1CNCCN(Cc1ccccn1)Cc1ccccn1,–,2.44,2.38,–,2.75,2.79,6.2,4.29,4.13,6.83,6.67,1.19,1.16,1.33,1.25,2.07,1.53,1.37,1.24,2.55
O=c1cc(N=Nc2ccc(Cl)cc2)[nH]c(=O)[nH]1,3.21,–,5.76,8.38,4.12,3.45,12,12.3,22.1,10.6,3.63,–,–,–,–,–,–,–,–,–
Oc1cccc(-c2cn3cc(C(F)(F)F)ccc3n2)c1,> 100,> 100,> 100,> 100,> 100,> 100,–,> 100,–,65.3,35.4,–,–,–,–,–,–,–,–,–
O=[N+]([O-])c1c2nc3n(c2cc2c1nc1n2CCC1)CCC3,> 100,> 100,> 100,–,> 100,> 100,> 100,> 100,> 100,> 100,> 100,–,–,–,–,–,–,–,–,–
CC(C)C1CC[C@H](C)C[C@@H]1OC(=O)C(C(=O)O[C@H]1C[C@@H](C)CCC1C(C)C)C(O)[C@@H]1OC(C)(C)O[C@H]1C1COC(C)(C)O1 (stereo not given in full),31.7,–,32,34.2,34.6,35.5,44.6,42.7,53,78.2,3.95,–,–,–,–,–,–,–,–,–
CC(NC(C#N)CC12CC3CC(CC(C3)C1)C2)c1ccccc1 (stereo not given),–,> 100,> 100,–,> 100,62.7,44,> 100,–,> 100,> 100,–,–,–,–,–,–,–,–,–
CS(=O)(=O)OCCCOS(C)(=O)=O,> 100,> 100,> 100,–,–,> 100,> 100,> 100,> 100,> 100,> 100,–,–,–,–,–,–,–,–,–
NC(=O)c1nnsc1NC=O,> 100,> 100,> 100,–,> 100,> 100,> 100,> 100,> 100,> 100,> 100,–,–,–,–,–,–,–,–,–
NS(=O)(=O)c1nnc(NS(=O)(=O)c2ccccc2C(=O)O)s1,> 100,> 100,> 100,> 100,> 100,> 100,> 100,> 100,–,> 100,> 100,–,–,–,–,–,–,–,–,–
O=C1c2ccccc2C(=O)c2c(O)ccc(O)c21,> 100,> 100,> 100,–,> 100,> 100,> 100,> 100,> 100,> 100,> 100,–,–,–,–,–,–,–,–,–
